Laboratory results taken from ChEMBL document CHEMBL5113381, “Large-Scale Screening of Antifungal Peptides Based on Quantitative Structure-Activity Relationship” (2022).
In brackets after ≈: the same amount, converted by molar mass. Peptide text beside a SMILES is read from it.

Key:
Assay type in all cases: functional
Cryptococcus neoformans = assay: Antifungal activity against Cryptococcus neoformans H99 measured after 24 to 48 hrs by CLSI method; conditions: time 24-48 hrs
Pichia kudriavzevii = assay: Antifungal activity against Candida krusei IFM56881 measured after 24 to 48 hrs by CLSI method; conditions: time 24-48 hrs
Candida albicans = assay: Antifungal activity against Candida albicans SC5314 measured after 24 to 48 hrs by CLSI method; conditions: time 24-48 hrs
Candida parapsilosis = assay: Antifungal activity against Candida parapsilosis ATCC 22019 measured after 24 to 48 hrs by CLSI method; conditions: Lodderomyces parapsilosis, time 24-48 hrs

| SMILES | MIC (Cryptococcus neoformans) [µM] | MIC (Pichia kudriavzevii) [µM] | MIC (Candida albicans) [µM] | MIC (Candida parapsilosis) [µM] |
| --- | --- | --- | --- | --- |
| CSCC[C@H](N)C(=O)N[C@@H](C)C(=O)N[C@H](C(=O)N[C@@H](CCCCN)C(=O)N[C@@H](CCCCN)C(=O)N[C@@H](CCCCN)C(=O)N[C@H](C(=O)N[C@H](C(=O)N[C@@H](CCCCN)C(=O)N[C@@H](CCCCN)C(=O)N[C@@H](C)C(=O)N[C@H](C(=O)N[C@@H](CCCCN)C(=O)N[C@@H](CCCCN)C(=O)N[C@H](C(=O)N[C@@H](C)C(=O)N[C@@H](CCCCN)C(=O)N[C@@H](CCCCN)C(=O)N[C@@H](C)C(=O)N1CCC[C@H]1C(=O)N[C@@H](CCCCN)C(=O)N[C@@H](CCCCN)C(=O)N[C@@H](C)C(=O)N[C@H](C(=O)N[C@@H](CCCCN)C(=O)N[C@@H](CCCCN)C(=O)N[C@H](C(=O)N[C@@H](C)C(=O)N[C@@H](CCCCN)C(=O)N[C@@H](CCCCN)C(=O)N[C@@H](CCCCN)C(=O)O)C(C)C)C(C)C)C(C)C)C(C)C)C(C)C)C(C)C)[C@@H](C)O (H-MATKKKVVKKAVKKVAKKAPKKAVKKVAKKK-OH) | 37.4 (≈ 128 µg/mL) | > 74.9 | > 74.9 | > 74.9 |
| CC(C)[C@H](NC(=O)[C@H](CCCNC(=N)N)NC(=O)[C@H](Cc1ccccc1)NC(=O)[C@H](CS)NC(=O)[C@H](Cc1c[nH]c2ccccc12)NC(=O)[C@H](CCCNC(=N)N)NC(=O)[C@@H](N)CCCNC(=N)N)C(=O)N[C@@H](CS)C(=O)N[C@@H](Cc1ccc(O)cc1)C(=O)N[C@@H](CCCNC(=N)N)C(=O)NCC(=O)N[C@@H](Cc1ccccc1)C(=O)N[C@@H](CS)C(=O)N[C@@H](Cc1ccc(O)cc1)C(=O)N[C@@H](CCCNC(=N)N)C(=O)N[C@@H](CCCCN)C(=O)N[C@@H](CS)C(=O)N[C@@H](CCCNC(=N)N)C(=O)O (H-RRWCFRVCYRGFCYRKCR-OH) | 1.02 (≈ 2.51 µg/mL) | 4.07 (≈ 10 µg/mL) | 4.07 (≈ 10 µg/mL) | 1.02 (≈ 2.51 µg/mL) |
| CC(C)C[C@H](NC(=O)[C@H](CCC(=O)O)NC(=O)[C@H](CCCCN)NC(=O)[C@H](CC(C)C)NC(=O)[C@@H](NC(=O)[C@@H]1CCCN1)C(C)C)C(=O)N[C@@H](CCCCN)C(=O)N[C@@H](CO)C(=O)N[C@H](C(=O)N[C@@H](CCC(N)=O)C(=O)N[C@@H](CCCCN)C(=O)N[C@H](C(=O)N[C@@H](CCCCN)C(=O)N[C@@H](CO)C(=O)NCC(=O)N[C@@H](CC(=O)O)C(=O)N[C@H](C(=O)N[C@@H](CC(C)C)C(=O)N[C@@H](Cc1ccc(O)cc1)C(=O)O)[C@@H](C)O)[C@@H](C)O)C(C)C (H-PVLKELKSVQKTKSGDTLY-OH) | > 120 | > 120 | > 120 | > 120 |
| CC[C@H](C)[C@H](NC(=O)[C@H](CCC(N)=O)NC(=O)[C@H](CCCCN)NC(=O)[C@H](CCCCN)NC(=O)[C@H](Cc1c[nH]c2ccccc12)NC(=O)[C@@H]1CCCN1C(=O)[C@@H](NC(=O)[C@H](CC(C)C)NC(=O)[C@H](CCCNC(=N)N)NC(=O)[C@H](CC(C)C)NC(=O)[C@@H](NC(=O)[C@H](CC(C)C)NC(=O)[C@@H]1CCCN1C(=O)[C@H](CCCCN)NC(=O)[C@H](Cc1cnc[nH]1)NC(=O)[C@H](CS)NC(=O)[C@H](CCCCN)NC(=O)[C@H](CCCNC(=N)N)NC(=O)[C@H](CC(C)C)NC(=O)[C@H](CCCNC(=N)N)NC(=O)[C@@H](N)CCSC)[C@@H](C)O)C(C)C)C(=O)N[C@@H](CCSC)C(=O)O (H-MRLRKCHKPLTLRLVPWKKQIM-OH) | 92.2 (≈ 256 µg/mL) | > 92.2 | > 92.2 | > 92.2 |
| CC[C@H](C)[C@H](NC(=O)CNC(=O)[C@H](CCCNC(=N)N)NC(=O)[C@H](Cc1ccc(O)cc1)NC(=O)[C@H](CS)NC(=O)[C@@H](NC(=O)[C@H](CCCNC(=N)N)NC(=O)[C@H](Cc1ccccc1)NC(=O)[C@H](CS)NC(=O)[C@H](Cc1c[nH]c2ccccc12)NC(=O)[C@@H](N)CCCCN)C(C)C)C(=O)N[C@@H](CS)C(=O)N[C@@H](Cc1ccc(O)cc1)C(=O)N[C@@H](CCCNC(=N)N)C(=O)N[C@@H](CCCCN)C(=O)N[C@@H](CS)C(=O)N[C@@H](CCCNC(=N)N)C(=O)O (H-KWCFRVCYRGICYRKCR-OH) | 1.79 (≈ 4.01 µg/mL) | 28.6 (≈ 64 µg/mL) | 14.3 (≈ 32 µg/mL) | 7.14 (≈ 16 µg/mL) |
| CC[C@H](C)[C@H](NC(=O)[C@H](CCCCN)NC(=O)[C@H](CO)NC(=O)[C@H](Cc1ccccc1)NC(=O)[C@@H](NC(=O)[C@@H](NC(=O)[C@H](CCCNC(=N)N)NC(=O)[C@H](Cc1ccccc1)NC(=O)[C@@H](NC(=O)[C@H](CCCCN)NC(=O)[C@H](CC(N)=O)NC(=O)[C@@H](N)CCSC)[C@@H](C)CC)C(C)C)[C@@H](C)CC)C(=O)N[C@@H](CC(C)C)C(=O)NCC(=O)N[C@@H](CCCNC(=N)N)C(=O)N[C@@H](CC(C)C)C(=O)N[C@H](C(=O)N[C@H](C(=O)N[C@H](C(=O)O)[C@@H](C)O)C(C)C)[C@@H](C)CC (H-MNKIFRVIFSKILGRLIVT-OH) | 7.12 (≈ 16 µg/mL) | 56.9 (≈ 128 µg/mL) | 14.2 (≈ 32 µg/mL) | 14.2 (≈ 32 µg/mL) |
| CC[C@H](C)[C@H](NC(=O)[C@H](C)NC(=O)[C@H](CCCCN)NC(=O)[C@H](CCCNC(=N)N)NC(=O)[C@@H](NC(=O)[C@H](CCCNC(=N)N)NC(=O)[C@H](CCCNC(=N)N)NC(=O)CNC(=O)[C@H](Cc1ccc(O)cc1)NC(=O)[C@H](CCCNC(=N)N)NC(=O)[C@H](C)NC(=O)CNC(=O)[C@H](Cc1ccccc1)NC(=O)[C@H](CCCNC(=N)N)NC(=O)CNC(=O)[C@H](C)NC(=O)[C@H](CO)NC(=O)[C@H](CCCCN)NC(=O)[C@@H](NC(=O)[C@H](CCCCN)NC(=O)[C@@H](NC(=O)CNC(=O)[C@H](CCCCN)NC(=O)[C@H](CCCCN)NC(=O)[C@H](CCCNC(=N)N)NC(=O)[C@H](CCCCN)NC(=O)[C@H](CCC(N)=O)NC(=O)[C@H](CCCCN)NC(=O)[C@H](CCCCN)NC(=O)[C@@H](NC(=O)[C@@H](N)CCSC)[C@@H](C)O)[C@@H](C)CC)[C@@H](C)O)[C@@H](C)CC)C(=O)O (H-MTKKQKRKKGIKTKSAGRFGARYGRRIRKAI-OH) | 8.84 (≈ 32 µg/mL) | > 70.7 | > 70.7 | 4.42 (≈ 16 µg/mL) |
| CSCC[C@H](NC(=O)[C@H](CCCNC(=N)N)NC(=O)[C@H](CCCCN)NC(=O)[C@H](CCCCN)NC(=O)[C@H](CCCCN)NC(=O)[C@H](Cc1c[nH]c2ccccc12)NC(=O)[C@H](CCCCN)NC(=O)[C@@H]1CCCN1C(=O)[C@H](CCCNC(=N)N)NC(=O)[C@@H](N)CCSC)C(=O)N[C@@H](CCCNC(=N)N)C(=O)N[C@@H](CCCNC(=N)N)C(=O)N[C@@H](CC(C)C)C(=O)N[C@@H](CCCCN)C(=O)N[C@@H](CCCNC(=N)N)C(=O)N[C@@H](CCCCN)C(=O)N[C@@H](CCCNC(=N)N)C(=O)N[C@@H](CCCCN)C(=O)N[C@@H](CCC(N)=O)C(=O)N[C@@H](CCCNC(=N)N)C(=O)N[C@@H](CCCNC(=N)N)C(=O)N[C@@H](C)C(=O)N[C@@H](CCCNC(=N)N)C(=O)N[C@@H](Cc1ccc(O)cc1)C(=O)N[C@@H](CCCCN)C(=O)O | 2.31 (≈ 8.02 µg/mL) | > 73.8 | > 73.8 | 18.4 (≈ 64 µg/mL) |
| CC[C@H](C)[C@H](NC(=O)[C@H](C)NC(=O)[C@H](CS)NC(=O)[C@H](CO)NC(=O)[C@@H](NC(=O)[C@H](Cc1ccccc1)NC(=O)[C@@H](N)Cc1ccc(O)cc1)[C@@H](C)CC)C(=O)N[C@@H](Cc1cnc[nH]1)C(=O)N[C@@H](Cc1ccccc1)C(=O)N[C@@H](CCCCN)C(=O)N[C@H](C(=O)N[C@@H](CC(C)C)C(=O)N[C@@H](CCCCN)C(=O)N[C@H](C(=O)N[C@@H](CCCNC(=N)N)C(=O)N[C@@H](CO)C(=O)N[C@@H](C)C(=O)N[C@@H](C)C(=O)N[C@@H](CCCCN)C(=O)N[C@@H](CCCNC(=N)N)C(=O)N[C@@H](CCCNC(=N)N)C(=O)N[C@@H](CCC(=O)O)C(=O)N[C@@H](Cc1cnc[nH]1)C(=O)N[C@H](C(=O)N[C@@H](CCCCN)C(=O)N[C@@H](CC(C)C)C(=O)N[C@@H](CCCNC(=N)N)C(=O)O)[C@@H](C)O)[C@@H](C)CC)[C@@H](C)CC (H-YFISCAIHFKILKIRSAAKRREHTKLR-OH) | 38.9 (≈ 128 µg/mL) | 19.5 (≈ 64 µg/mL) | 77.9 (≈ 256 µg/mL) | 77.9 (≈ 256 µg/mL) |
| CC[C@H](C)[C@H](NC(=O)CNC(=O)[C@H](CCCNC(=N)N)NC(=O)[C@H](Cc1ccc(O)cc1)NC(=O)[C@H](CS)NC(=O)[C@@H](NC(=O)[C@H](CCCNC(=N)N)NC(=O)[C@H](Cc1ccccc1)NC(=O)[C@H](CS)NC(=O)[C@H](Cc1c[nH]c2ccccc12)NC(=O)[C@@H](N)CCCCN)C(C)C)C(=O)N[C@@H](CS)C(=O)N[C@@H](Cc1ccc(O)cc1)C(=O)N[C@@H](CCCNC(=N)N)C(=O)N[C@@H](CCCNC(=N)N)C(=O)N[C@@H](CS)C(=O)N[C@@H](CCCNC(=N)N)C(=O)O (H-KWCFRVCYRGICYRRCR-OH) | 3.53 (≈ 8.01 µg/mL) | 28.2 (≈ 64 µg/mL) | 14.1 (≈ 32 µg/mL) | 7.05 (≈ 16 µg/mL) |
| CC[C@H](C)[C@H](NC(=O)[C@H](CCCNC(=N)N)NC(=O)CNC(=O)[C@H](CC(C)C)NC(=O)[C@H](Cc1ccccc1)NC(=O)[C@H](CCC(N)=O)NC(=O)[C@H](Cc1ccccc1)NC(=O)[C@@H](N)C(C)C)C(=O)N[C@H](C(=O)N[C@@H](Cc1cnc[nH]1)C(=O)N[C@@H](Cc1cnc[nH]1)C(=O)N[C@H](C(=O)NCC(=O)N[C@@H](CC(N)=O)C(=O)N[C@@H](Cc1ccccc1)C(=O)N[C@H](C(=O)N[C@@H](Cc1cnc[nH]1)C(=O)NCC(=O)N[C@@H](Cc1ccccc1)C(=O)N[C@@H](CO)C(=O)N[C@@H](Cc1cnc[nH]1)C(=O)N[C@H](C(=O)N[C@@H](Cc1ccccc1)C(=O)O)C(C)C)C(C)C)C(C)C)[C@@H](C)CC [Clavanin B] (H-VFQFLGRIIHHVGNFVHGFSHVF-OH) | > 95 | > 95 | > 95 | > 95 |
| CC[C@H](C)[C@H](NC(=O)[C@H](CCCCN)NC(=O)[C@H](CC(C)C)NC(=O)[C@H](Cc1ccccc1)NC(=O)[C@H](CC(C)C)NC(=O)[C@H](Cc1ccccc1)NC(=O)[C@@H](NC(=O)[C@H](CO)NC(=O)[C@H](CO)NC(=O)[C@@H](NC(=O)[C@H](Cc1ccccc1)NC(=O)[C@@H](NC(=O)[C@H](CO)NC(=O)[C@H](Cc1ccc(O)cc1)NC(=O)[C@@H](N)CCSC)C(C)C)[C@@H](C)CC)[C@@H](C)CC)C(=O)N[C@@H](CCCNC(=N)N)C(=O)N[C@@H](Cc1ccccc1)C(=O)N[C@@H](CCCCN)C(=O)N[C@@H](CC(C)C)C(=O)N[C@@H](Cc1ccc(O)cc1)C(=O)N1CCC[C@H]1C(=O)N[C@@H](CCCNC(=N)N)C(=O)O (H-MYSVFISSIFLFLKIRFKLYPR-OH) | > 92.4 | > 92.4 | > 92.4 | > 92.4 |
